Measurements as given in PubChem BioAssay AID1845211 (Molecular Pharmacology Branch, DTP, NCI, 2023).
pIC50: −log10 of the molar value. “And” between values parts separate entries of the source, which are not always exact repeats. Equal values may be shown once.

Tested on: NCI-H322M multicellular tumor spheroids, viability (% test/control)
Experiment: Anticancer human tumor NCI-H322M cell line growth inhibition;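 for viability, T/C: spheroids exposed to compound for seven days before readout; 100% = DMSO vehicle control wells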
Conditions: for viability, T/C: stronger effect = lower value
Text: Multicellular complex tumor spheroid response to DNA repair inhibitors in combination with DNA-damaging drugs
This study explores the anticancer activities of DNA-damaging drugs and inhibitors of DNA damage repair, both as single agents and in combinations. Complex tumor spheroids comprised of malignant cells, endothelial cells and mesenchymal stem cells served as an in vitro model for human solid tumors. This model system incorporates physiologically relevant features and patient-derived or established malignant cell lines with clinically relevant genetic alterations from many tumor types. Twenty-six patient-derived or established malignant cell lines were evaluated representing sarcoma, melanoma, small cell lung cancer (SCLC), non-small cell lung cancer (NSCLC), as well as bladder, ovarian and pancreatic cancers. The concentration ranges selected for each drug and investigational agent were based upon clinically achievable concentrations if the clinical Cmax of the agent was known.
Compounds. The drugs and compounds olaparib (NSC753686), talazoparib (NSC767125), berzosertib (NSC777718), elimusertib (NSC800525), nedisertib (NSC802822), VX-984 (NSC792969), AZD-1390 (NSC803789), temozolomide (NSC362856), topotecan (NSC609699), trabectedin (NSC813783), staurosporine (NSC755774), and gemcitabine (NSC613327) were obtained from the National Cancer Institute (NCI) Developmental Therapeutics Program Chemical Repository. The FDA-approved anticancer drug set is available from the Developmental Therapeutics Program at https://dtp.cancer.gov/organization/dscb/obtaining/available_plates.htm. […] The stock solutions were prepared in dimethyl sulfoxide (DMSO, Sigma-Aldrich, St. Louis, MO, cat. D2650) at 400-fold the tested concentration and stored at -70 degrees C. Prior to their use, the stock solutions were diluted in fresh medium and the final DMSO concentration in the assay was 0.25% (v/v). All drugs and investigational agents were tested over a range starting from a high concentration at or near the clinical Cmax and decreasing in half-log increments. If the clinical Cmax for an agent had not been determined, the highest concentration tested was 10 microM.
Cell Lines. The patient-derived cancer cell (PDC) lines: 156681-154-R-J1-PDC, 283228-195-R-J1-PDC, 287954-098-R-J1-PDC, 292921-168-R-J2-PDC, 349418-098-R-PDC, 425362-245-T-J1-PDC, 556581-035-R-J1-PDC, and BL0293-F563-PDC were received from the NCI Patient-Derived Models Repository (PDMR, https://pdmr.cancer.gov). The established cell lines HS-SY-2 (RRID:CVCL_8719), MPNST, and SYO-1 (RRID:CVCL_7146) were obtained from the Sloan Kettering Institute. The alveolar soft parts sarcoma cell line ASPS-1 (RRID:CVCL_S738) was established at the NCI and grown from internal seed stocks. The following established cell lines were purchased from the American Type Culture Collection (ATCC, Manassas, VA): G-401 (ATCC, cat. CRL-1441, RRID:CVCL_0270), SW982 (ATCC, cat. HTB-93, RRID:CVCL_1734), VA-ES-BJ (ATCC, cat. CRL-2138, RRID:CVCL_1785), NCI-H719 (ATCC, cat. CRL-5837, RRID:CVCL_1582), NCI-H196 (ATCC, cat. CRL-5823, RRID:CVCL_1509), NCI-H841 (ATCC, cat. CRL-5845, RRID:CVCL_1595), NCI-H1618 (ATCC, cat. CRL-5879, RRID:CVCL_1480), NCI-H1876 (ATCC, cat. CRL-5902, RRID:CVCL_1503), DMS 114 (ATCC, cat. CRL-2066; RRID:CVCL_1174), NCI-H211 (ATCC, cat. CRL-5824; RRID:CVCL_1529), and SW 1271 (ATCC, cat. CRL-2177, RRID:CVCL_1716). The small cell lung cancer cell line COR-L88 was purchased from Sigma-Aldrich (cat. 92031917-1VL, RRID:CVCL_1141). The non-small cell lung cancer cell lines NCI-H226 (RRID:CVCL_1544) and NCI-H322M (RRID:CVCL_1557) were established at the NCI and grown from internal seed stocks. Pooled donor human umbilical vein endothelial cells (HUVEC, Lonza, cat. CC-2519) and human mesenchymal stem cells (hMSC, Lonza, cat. PT-2501) were purchased from Lonza (Walkersville, MD).
Cell Culture. All cells were maintained in an incubator at 37 degrees C and 5% CO2 with 95% humidity. […]

[1] = curve of first compound, second compound 30 pM
[2] = curve of first compound, second compound 94.9 pM
[3] = curve of first compound, second compound 0.0003 µM
[4] = curve of first compound, second compound 0.000949 µM
[5] = curve of first compound, second compound 0.003 µM

CC1COCCN1c1cc(-c2ccnn2C)c2ccnc(-c3ccn[nH]3)c2n1 (configuration not stated) + COc1cc2c(cc1O)CCNC21CSC2c3c(OC(C)=O)c(C)c4c(c3C(COC1=O)N1C(O)C3Cc5cc(C)c(OC)c(O)c5C(C21)N3C)OCO4 was tested, and the pIC50 [1] was > 7.50, the pIC50 [2] was > 7.50 and the pIC50 [3] was > 7.50. For the same molecule, the pIC50 [4] was > 7.50, the pIC50 [5] was > 7.50 and the viability, T/C (second compound 30 pM, first compound 0.0316 µM) was 50.9%. It also gave a viability, T/C (second compound 30 pM, first compound 0.1 µM) of 34.8%, a viability, T/C (second compound 30 pM, first compound 0.316 µM) of 28.1% and a viability, T/C (second compound 30 pM, first compound 1 µM) of 29.2%. The viability, T/C (second compound 30 pM, first compound 3.16 µM) was 31%, the viability, T/C (second compound 30 pM, first compound 10 µM) was 33% and the viability, T/C (second compound 94.9 pM, first compound 0.0316 µM) was 42.3%. The viability, T/C (second compound 94.9 pM, first compound 0.1 µM) was 29.3%, the viability, T/C (second compound 94.9 pM, first compound 0.316 µM) was 27.5% and the viability, T/C (second compound 94.9 pM, first compound 1 µM) was 25.9%. It also gave a viability, T/C (second compound 94.9 pM, first compound 3.16 µM) of 29.2%, a viability, T/C (second compound 94.9 pM, first compound 10 µM) of 32.3% and a viability, T/C (second compound 0.0003 µM, first compound 0.0316 µM) of 28%. For the same molecule, the viability, T/C (second compound 0.0003 µM, first compound 0.1 µM) was 21.1%, the viability, T/C (second compound 0.0003 µM, first compound 0.316 µM) was 21% and the viability, T/C (second compound 0.0003 µM, first compound 1 µM) was 22.7%. The viability, T/C (second compound 0.0003 µM, first compound 3.16 µM) was 24.3%, the viability, T/C (second compound 0.0003 µM, first compound 10 µM) was 26.8% and the viability, T/C (second compound 0.000949 µM, first compound 0.0316 µM) was 19.4%. The viability, T/C (second compound 0.000949 µM, first compound 0.1 µM) was 15%, the viability, T/C (second compound 0.000949 µM, first compound 0.316 µM) was 17% and the viability, T/C (second compound 0.000949 µM, first compound 1 µM) was 19.7%. The viability, T/C (second compound 0.000949 µM, first compound 3.16 µM) was 18.8%, the viability, T/C (second compound 0.000949 µM, first compound 10 µM) was 18% and the viability, T/C (second compound 0.003 µM, first compound 0.0316 µM) was 3.51%. It also gave a viability, T/C (second compound 0.003 µM, first compound 0.1 µM) of 3.16%, a viability, T/C (second compound 0.003 µM, first compound 0.316 µM) of 3.09% and a viability, T/C (second compound 0.003 µM, first compound 1 µM) of 2.33%. For the same molecule, the viability, T/C (second compound 0.003 µM, first compound 3.16 µM) was 2.23% and the viability, T/C (second compound 0.003 µM, first compound 10 µM) was 0.78%.

CNCc1ccc(-c2cc(-c3nc(-c4ccc(S(=O)(=O)C(C)C)cc4)cnc3N)on2)cc1 + COc1cc2c(cc1O)CCNC21CSC2c3c(OC(C)=O)c(C)c4c(c3C(COC1=O)N1C(O)C3Cc5cc(C)c(OC)c(O)c5C(C21)N3C)OCO4 was tested, and the pIC50 [1] was < 5.52, the pIC50 [2] was < 5.52 and the pIC50 [3] was < 5.52. The pIC50 [4] was 6.32, the pIC50 [5] was > 8.02 and the viability, T/C (second compound 30 pM, first compound 0.00949 µM) was 98.7%. For the same molecule, the viability, T/C (second compound 30 pM, first compound 0.03 µM) was 102%, the viability, T/C (second compound 30 pM, first compound 0.0949 µM) was 82.5% and the viability, T/C (second compound 30 pM, first compound 0.3 µM) was 76.4%. It also gave a viability, T/C (second compound 30 pM, first compound 0.949 µM) of 69.5%, a viability, T/C (second compound 30 pM, first compound 3 µM) of 70% and a viability, T/C (second compound 94.9 pM, first compound 0.00949 µM) of 95.5%. It also gave a viability, T/C (second compound 94.9 pM, first compound 0.03 µM) of 80.2%, a viability, T/C (second compound 94.9 pM, first compound 0.0949 µM) of 85.6% and a viability, T/C (second compound 94.9 pM, first compound 0.3 µM) of 73.4%. The viability, T/C (second compound 94.9 pM, first compound 0.949 µM) was 66.4%, the viability, T/C (second compound 94.9 pM, first compound 3 µM) was 66.1% and the viability, T/C (second compound 0.0003 µM, first compound 0.00949 µM) was 85.7%. The viability, T/C (second compound 0.0003 µM, first compound 0.03 µM) was 85.8%, the viability, T/C (second compound 0.0003 µM, first compound 0.0949 µM) was 77.8% and the viability, T/C (second compound 0.0003 µM, first compound 0.3 µM) was 60.5%. The viability, T/C (second compound 0.0003 µM, first compound 0.949 µM) was 59.4%, the viability, T/C (second compound 0.0003 µM, first compound 3 µM) was 59.2% and the viability, T/C (second compound 0.000949 µM, first compound 0.00949 µM) was 81.9%. For the same molecule, the viability, T/C (second compound 0.000949 µM, first compound 0.03 µM) was 76.9%, the viability, T/C (second compound 0.000949 µM, first compound 0.0949 µM) was 71.4% and the viability, T/C (second compound 0.000949 µM, first compound 0.3 µM) was 51.9%. The viability, T/C (second compound 0.000949 µM, first compound 0.949 µM) was 47.3%, the viability, T/C (second compound 0.000949 µM, first compound 3 µM) was 44.4% and the viability, T/C (second compound 0.003 µM, first compound 0.00949 µM) was 9.27%. The viability, T/C (second compound 0.003 µM, first compound 0.03 µM) was 10.9%, the viability, T/C (second compound 0.003 µM, first compound 0.0949 µM) was 10.1% and the viability, T/C (second compound 0.003 µM, first compound 0.3 µM) was 9.72%. For the same molecule, the viability, T/C (second compound 0.003 µM, first compound 0.949 µM) was 12.4% and the viability, T/C (second compound 0.003 µM, first compound 3 µM) was 7.67%.

With COc1cc(C)[nH]c(=O)c1CN1CCc2c(Cl)cc(C(OC)C3COC3)c(Cl)c2C1=O (configuration not stated) the viability, T/C (compound 0.0316 µM) was 104% and 96.2% and 98.2%, the viability, T/C (compound 0.1 µM) was 87.7% and 103% and 84% and the viability, T/C (compound 0.316 µM) was 89.9% and 91.7% and 80.2%. For the same molecule, the viability, T/C (compound 1 µM) was 74.3% and 84.4% and 89.6%, the viability, T/C (compound 3.16 µM) was 93.3% and 91.8% and 102% and the viability, T/C (compound 10 µM) was 82% and 96.2% and 93.1%. The pIC50 (curve of compound) was < 5.00.
